Measured values taken from PubChem BioAssay AID1671224.

Molecular target: Tyrosine-protein kinase BTK (Homo sapiens) (UniProt Q06187)
Experiment: BTK kinase inhibition, dose response, biochemical, Z'-LYTE, FRET readout, direct format (AID 1671224)
Conditions: recombinant BTK, Z'-LYTE FRET peptide phosphorylation

Sequence of Tyrosine-protein kinase BTK (Homo sapiens) (Q06187 whole entry, looked up): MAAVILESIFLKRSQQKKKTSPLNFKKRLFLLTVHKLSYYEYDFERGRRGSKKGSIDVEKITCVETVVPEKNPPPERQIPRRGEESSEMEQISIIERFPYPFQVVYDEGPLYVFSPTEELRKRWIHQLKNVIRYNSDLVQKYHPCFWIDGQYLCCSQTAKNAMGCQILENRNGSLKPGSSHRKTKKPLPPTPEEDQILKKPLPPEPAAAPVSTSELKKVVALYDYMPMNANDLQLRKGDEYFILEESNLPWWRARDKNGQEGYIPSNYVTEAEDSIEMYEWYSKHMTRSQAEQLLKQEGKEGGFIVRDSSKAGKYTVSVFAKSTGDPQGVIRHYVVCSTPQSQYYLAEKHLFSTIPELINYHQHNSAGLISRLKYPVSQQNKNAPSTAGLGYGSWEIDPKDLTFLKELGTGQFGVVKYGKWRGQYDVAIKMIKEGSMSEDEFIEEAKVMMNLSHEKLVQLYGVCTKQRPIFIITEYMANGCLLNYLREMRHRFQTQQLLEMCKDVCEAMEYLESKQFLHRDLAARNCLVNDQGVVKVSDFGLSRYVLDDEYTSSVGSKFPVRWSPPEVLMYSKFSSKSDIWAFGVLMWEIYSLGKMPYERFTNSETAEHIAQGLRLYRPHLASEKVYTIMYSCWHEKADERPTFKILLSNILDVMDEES

IC50: 3.61 µM
Structure (SMILES): COc1cc2ncnc(Nc3cccc(Cl)c3)c2cc1OC
